# What was measured:
# Type in all cases: in vivo
# male Sprague-Dawley rats [1] = experiment: Rat hindpaw withdrawal latency (HWL) to mechanical stimulation, Randall Selitto Test; details: for % Changes of HWL to Mechanical Stimulation: 10 minutes after intrathecal injection
# male Sprague-Dawley rats [2] = experiment: Rat hindpaw withdrawal latency (HWL) to thermal stimulation, hot-plate test; details: for % Changes of HWL to Thermal Stimulation: 10 minutes after intrathecal injection
# male Sprague-Dawley rats [3] = experiment: Development of tolerance to intrathecal analgesia in rat HWL tests (thermal and mechanical); details: intrathecal every 12 hrs
# Experimental: A polyethylene catheter (Intramedic PE 10) was permanently implanted intrathecally with the inner tip at L3 to L5 in each animal. Rats displaying movement disorders following placement of the catheter were not used in the study. Injection volume was 10 μL of drug solution followed by 10 μL of 0.9% saline to flush the catheter. Intrathecal injections were performed every 12 hrs (morning and night).
# In the morphine only group, 8 μg morphine HCl was injected every 12 hrs until complete tolerance developed and in the nociceptin only group, 10 nmol nociceptin was injected every 12 hrs until complete tolerance developed. These doses were chosen from previous studies that determined an equianalgesic dosing for these two drugs. […]
# Solutions for intrathecal injection were prepared with sterilized saline (0.9%). […] The hindpaw withdrawal latency (HWL) was measured for both thermal and mechanical stimulation. […] A wedge shaped probe with a loading rate of 30 g/second was applied to the dorsal surface of the manually handled hindpaw and the mechanical stimulation required to initiate the struggle response was assessed. […] The HWLs were measured 15 min after the second intrathecal injection on a daily basis. […]
# [4] = day 1, drug alone, intrathecal, text summary of both hindpaws
smiles,measurement,setting,value
"CN1CC[C@]23c4c5ccc(O)c4O[C@H]2[C@@H](O)C=C[C@H]3[C@H]1C5 [Morphine, morphine]",HWL increase using mechanical stimulation,male Sprague-Dawley rats [1]; [4],~55%
same,% Changes of HWL to Mechanical Stimulation,"male Sprague-Dawley rats [1]; day 1, left hindpaw",53.99 ± 2.96%
same,% Changes of HWL to Mechanical Stimulation,"male Sprague-Dawley rats [1]; day 1, right hindpaw",56.04 ± 3.38%
same,% Changes of HWL to Mechanical Stimulation,"male Sprague-Dawley rats [1]; day 2, left hindpaw",47.69 ± 2.54%
same,% Changes of HWL to Mechanical Stimulation,"male Sprague-Dawley rats [1]; day 2, right hindpaw",46.74 ± 2.52%
same,% Changes of HWL to Mechanical Stimulation,"male Sprague-Dawley rats [1]; day 3, left hindpaw",33.85 ± 1.60%
same,% Changes of HWL to Mechanical Stimulation,"male Sprague-Dawley rats [1]; day 3, right hindpaw",33.44 ± 1.03%
same,% Changes of HWL to Mechanical Stimulation,"male Sprague-Dawley rats [1]; day 4, left hindpaw",31.37 ± 2.02%
same,% Changes of HWL to Mechanical Stimulation,"male Sprague-Dawley rats [1]; day 4, right hindpaw",28.84 ± 2.73%
same,% Changes of HWL to Mechanical Stimulation,"male Sprague-Dawley rats [1]; day 5, left hindpaw",15.30 ± 1.39%
same,% Changes of HWL to Mechanical Stimulation,"male Sprague-Dawley rats [1]; day 5, right hindpaw",16.54 ± 1.26%
same,% Changes of HWL to Mechanical Stimulation,"male Sprague-Dawley rats [1]; day 6, left hindpaw",3.26 ± 1.86%
same,% Changes of HWL to Mechanical Stimulation,"male Sprague-Dawley rats [1]; day 6, right hindpaw",2.72 ± 1.94%
same,HWL increase using thermal stimulation,male Sprague-Dawley rats [2]; [4],approximately 67%
same,% Changes of HWL to Thermal Stimulation,"male Sprague-Dawley rats [2]; day 1, left hindpaw",66.26 ± 2.20%
same,% Changes of HWL to Thermal Stimulation,"male Sprague-Dawley rats [2]; day 1, right hindpaw",66.66 ± 1.51%
same,% Changes of HWL to Thermal Stimulation,"male Sprague-Dawley rats [2]; day 2, left hindpaw",61.25 ± 3.05%
same,% Changes of HWL to Thermal Stimulation,"male Sprague-Dawley rats [2]; day 2, right hindpaw",63.11 ± 0.64%
same,% Changes of HWL to Thermal Stimulation,"male Sprague-Dawley rats [2]; day 3, left hindpaw",51.66 ± 1.73%
same,% Changes of HWL to Thermal Stimulation,"male Sprague-Dawley rats [2]; day 3, right hindpaw",48.74 ± 2.40%
same,% Changes of HWL to Thermal Stimulation,"male Sprague-Dawley rats [2]; day 4, left hindpaw",43.63 ± 1.38%
same,% Changes of HWL to Thermal Stimulation,"male Sprague-Dawley rats [2]; day 4, right hindpaw",42.45 ± 1.70%
same,% Changes of HWL to Thermal Stimulation,"male Sprague-Dawley rats [2]; day 5, left hindpaw",23.85 ± 1.03%
same,% Changes of HWL to Thermal Stimulation,"male Sprague-Dawley rats [2]; day 5, right hindpaw",25.07 ± 2.07%
same,% Changes of HWL to Thermal Stimulation,"male Sprague-Dawley rats [2]; day 6, left hindpaw",−1.30 ± 2.36%
same,% Changes of HWL to Thermal Stimulation,"male Sprague-Dawley rats [2]; day 6, right hindpaw",0.51 ± 1.61%
same,day by which complete (total) tolerance exists,male Sprague-Dawley rats [3],6 days

# Reference: patent US20030040479A1, “Rotational intrathecal analgesia method and device” (Omeros Corporation, priority 2001, published 2003)
